The record followed here is ChEMBL document CHEMBL1828556, “Synthesis, hypnotic properties and molecular modeling studies of 1,2,7,9-tetraaza-spiro[4.5]dec-2-ene-6,8,10-triones” (Eur J Med Chem, 2011).

Data set [1] concerns Mus musculus. The data set is described as follows: Potentiation of sodium thiopental-induced hypnotic/sedative activity in Albino mouse assessed as time elapsed between injection of sodium thiopental and loss of righting reflex at 25 mg/kg, ip administered 1 hr prior challenge (Rvb =2.66 +/- 0.23 mins). Particulars: route intraperitoneal. In kind it is functional.
For data set [2], the system named is Mus musculus. The data set is described as follows: Potentiation of sodium thiopental-induced hypnotic/sedative activity in Albino mouse assessed as sleeping time at 25 mg/kg, ip administered 1 hr prior challenge relative to control. Format: functional. Particulars: route intraperitoneal.
Data set [3] deals with Mus musculus. The data set is described as follows: Toxicity in Albino mouse assessed as mortality at 250 mg/kg, ip after 24 hrs. Particulars: in vivo. The arrangement: dose 250 mg/kg, route intraperitoneal. In kind it is organism-based.
Data set [4] relates to Mus musculus. The data set is described as follows: Toxicity in Albino mouse assessed as mortality at 500 mg/kg, ip after 24 hrs. Format: organism-based. The arrangement: dose 500 mg/kg, route intraperitoneal. Particulars: in vivo.
Data set [5] relates to Mus musculus. The data set is described as follows: Toxicity in Albino mouse assessed as toxic symptoms at 500 mg/kg, ip after 24 hrs. In kind it is organism-based. The arrangement: dose 500 mg/kg, route intraperitoneal. Particulars: in vivo.
The subject of data set [6] is Mus musculus. The data set is described as follows: Toxicity in Albino mouse assessed as toxic symptoms at 250 mg/kg, ip after 24 hrs. Format: organism-based. The arrangement: dose 250 mg/kg, route intraperitoneal. Particulars: in vivo.
The subject of data set [7] is Mus musculus. The data set is described as follows: Toxicity in Albino mouse assessed as toxic symptoms at 750 mg/kg, ip after 24 hrs. Format: organism-based. The arrangement: dose 750 mg/kg, route intraperitoneal. Particulars: in vivo.
Data set [8] concerns Mus musculus. Briefly: Toxicity in Albino mouse assessed as mortality at 750 mg/kg, ip after 24 hrs. In kind it is organism-based. Particulars: in vivo. The arrangement: dose 750 mg/kg, route intraperitoneal.

As to `CN1C(=O)N(C)C(=O)C2(C1=O)C(c1ccccc1)C(c1ccccc1)=NN2c1ccccc1` (stereo not drawn), the Time in data set [1] stood at 3 min. The Activity in data set [2] worked out at 1.3%.

In the case of `CN1C(=O)N(C)C(=O)C2(C1=O)C(c1ccccc1)C(c1ccccc1)=NN2c1cccc(Cl)c1` (stereo not drawn), the Time in data set [1] came out at 1.85 min. For the same molecule, the Activity in data set [2] is 192%.

Take `CN1C(=O)N(C)C(=O)C2(C1=O)C(c1ccc(Cl)cc1)C(c1ccccc1)=NN2c1ccccc1` (stereo not drawn): the Time in data set [1] turned out to be 3.47 min. Moreover, in data set [2], the Activity was 20%.

`CN1C(=O)N(C)C(=O)C2(C1=O)C(c1ccc(Cl)cc1)C(c1ccccc1)=NN2c1cccc(Cl)c1` (stereo not drawn): the Activity entry in data set [3], in data set [4], in data set [5], in data set [6], in data set [7] and in data set [8] was “Non-toxic” throughout. Further, the Activity in data set [2] is 340.9%. The Time in data set [1] stood at 2.3 min.

Turning to `CN1C(=O)N(C)C(=O)C2(C1=O)C(c1ccc(Cl)cc1Cl)C(c1ccccc1)=NN2c1ccccc1` (stereo not drawn), the Activity result in data set [3], in data set [4], in data set [5], in data set [6], in data set [7] and in data set [8] was “Non-toxic” throughout. In addition, the Activity in data set [2] is on record as 501.2%. Moreover, the Time in data set [1] worked out at 2.12 min.

Consider `CN1C(=O)N(C)C(=O)C2(C1=O)C(c1ccc(F)cc1)C(c1ccccc1)=NN2c1ccccc1` (stereo not drawn), for which the Activity entry in data set [3], in data set [4], in data set [5], in data set [6], in data set [7] and in data set [8] was “Non-toxic” each time. The Activity in data set [2] is 358.6%. Further, the Time in data set [1] stood at 2 min.

Turning to `Cc1ccc(C2C(c3ccccc3)=NN(c3ccccc3)C23C(=O)N(C)C(=O)N(C)C3=O)cc1` (stereo not drawn), the Activity entry in data set [3], in data set [4], in data set [5], in data set [6], in data set [7] and in data set [8] was “Non-toxic” in each case. Moreover, the Activity in data set [2] turned out to be 311.3%. In addition, in data set [1], the Time amounted to 2.92 min.

On to `COc1ccc(C2C(c3ccccc3)=NN(c3ccccc3)C23C(=O)N(C)C(=O)N(C)C3=O)cc1` (stereo not drawn), for which the Time in data set [1] was 5.25 min. The Activity in data set [2] is listed as -20.3%.

Turning to `CN1C(=O)N(C)C(=O)C2(C1=O)C(c1ccc(N(C)C)cc1)C(c1ccccc1)=NN2c1ccccc1` (stereo not drawn), the Activity entry in data set [3], in data set [4], in data set [5], in data set [6], in data set [7] and in data set [8] was “Non-toxic” throughout. The Activity in data set [2] is recorded as 299.4%. Moreover, the Time in data set [1] was 2.91 min.

On to `CN1C(=O)N(C)C(=O)C2(C1=O)C(c1cccs1)C(c1ccccc1)=NN2c1ccccc1` (stereo not drawn), for which the Time in data set [1] worked out at 1.79 min. Moreover, the Activity in data set [2] is -25.8%.

Take `Cc1ccc(C2C(c3ccccc3)=NN(c3ccccc3)C23C(=O)N(C)C(=O)N(C)C3=O)o1` (stereo not drawn): the Activity result in data set [3], in data set [4], in data set [5], in data set [6], in data set [7] and in data set [8] was “Non-toxic” throughout. In data set [2], the Activity amounted to 904%. Besides, the Time in data set [1] worked out at 2.66 min.
